Test results reported in PubChem BioAssay (NCI).
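Five compound concentrations were applied to cells in 96-well plates for 48 hours; endpoints were derived by simple linear interpolation of the resulting dose-response curve. At the TGI there is no net growth.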

Experiments:
Test in all cases: inhibition of tumour cell growth, NCI panel, 48 h
[1] = tested on: HCT-15 colon
[2] = tested on: SN12C renal
[3] = tested on: OVCAR-3 ovarian
[4] = tested on: LXFL 529 NSCLC
[5] = tested on: ACHN renal
[6] = tested on: TK-10 renal
[7] = tested on: M14 melanoma
[8] = tested on: KM20L2 colon
[9] = tested on: KM12 colon
[10] = tested on: RPMI-8226 leukemia
[11] = tested on: OVCAR-8 ovarian
[12] = tested on: NCI-H226 lung
[13] = tested on: SF-268 CNS
[14] = tested on: A498 renal
[15] = tested on: EKVX NSCLC
[16] = tested on: A549 NSCLC
[17] = tested on: XF 498 CNS
[18] = tested on: SF-539 CNS
[19] = tested on: 786-0 renal
[20] = tested on: SF-295 CNS
[21] = tested on: NCI-H23 lung
[22] = tested on: U251 CNS
[23] = tested on: SK-OV-3 ovarian
[24] = tested on: SNB-78 CNS
[25] = tested on: CCRF-CEM leukemia
[26] = tested on: OVCAR-4 ovarian
[27] = tested on: K-562 leukemia
[28] = tested on: SK-MEL-28 melanoma
[29] = tested on: CAKI-1 renal
[30] = tested on: DMS 273 small cell lung
[31] = tested on: M19-MEL melanoma
[32] = tested on: OVCAR-5 ovarian
[33] = tested on: MOLT-4 leukemia
[34] = tested on: HOP-92 NSCLC
[35] = tested on: LOX IMVI melanoma
[36] = tested on: SR leukemia
[37] = tested on: MALME-3M melanoma
[38] = tested on: SW-620 colon
[39] = tested on: HOP-18 NSCLC
[40] = tested on: RXF 393 renal
[41] = tested on: HCT-116 colon
[42] = tested on: UACC-257 melanoma
[43] = tested on: HOP-62 NSCLC
[44] = tested on: HL-60(TB) leukemia
[45] = tested on: COLO 205 colon
[46] = tested on: DLD-1 colon
[47] = tested on: UACC-62 melanoma
[48] = tested on: NCI-H522 lung
[49] = tested on: HCC-2998 colon
[50] = tested on: HT29 colon
[51] = tested on: DMS 114 small cell lung
[52] = tested on: SNB-19 CNS
[53] = tested on: UO-31 renal
[54] = tested on: SNB-75 CNS
[55] = tested on: NCI-H460 lung
[56] = tested on: IGROV1 ovarian
[57] = tested on: SK-MEL-5 melanoma
[58] = tested on: SK-MEL-2 melanoma

With `COc1ccc(C2CC(c3cc(C)ccc3O)=NC(N)=N2)cc1` (stereo not drawn) the TGI [1] was > 100 µM, the TGI [2] was > 100 µM and the TGI [3] was > 100 µM. For the same molecule, the TGI [4] was > 100 µM, the TGI [5] was > 100 µM and the TGI [6] was > 100 µM. For the same molecule, the TGI [7] was > 100 µM, the TGI [8] was > 100 µM and the TGI [9] was > 100 µM. For the same molecule, the TGI [10] was > 100 µM, the TGI [11] was > 100 µM and the TGI [12] was > 100 µM. For the same molecule, the TGI [13] was > 100 µM, the TGI [14] was > 100 µM and the TGI [15] was > 100 µM. The TGI [16] was > 100 µM, the TGI [17] was > 100 µM and the TGI [18] was > 100 µM. The TGI [19] was > 100 µM, the TGI [20] was > 100 µM and the TGI [21] was > 100 µM. For the same molecule, the TGI [22] was > 100 µM, the TGI [23] was > 100 µM and the TGI [24] was > 100 µM. The TGI [25] was > 100 µM, the TGI [26] was > 100 µM and the TGI [27] was > 100 µM. For the same molecule, the TGI [28] was > 100 µM, the TGI [29] was > 100 µM and the TGI [30] was > 100 µM. For the same molecule, the TGI [31] was > 100 µM, the TGI [32] was > 100 µM and the TGI [33] was > 100 µM. The TGI [34] was > 100 µM, the TGI [35] was > 100 µM and the TGI [36] was > 100 µM. For the same molecule, the TGI [37] was > 100 µM, the TGI [38] was > 100 µM and the TGI [39] was > 100 µM. The TGI [40] was > 100 µM, the TGI [41] was > 100 µM and the TGI [42] was > 100 µM. The TGI [43] was > 100 µM, the TGI [44] was > 100 µM and the TGI [45] was > 100 µM. The TGI [46] was > 100 µM, the TGI [47] was > 100 µM and the TGI [48] was > 100 µM. For the same molecule, the TGI [49] was > 100 µM, the TGI [50] was > 100 µM and the TGI [51] was > 100 µM. For the same molecule, the TGI [52] was > 100 µM, the TGI [53] was > 100 µM and the TGI [54] was > 100 µM. For the same molecule, the TGI [55] was > 100 µM and the TGI [56] was > 100 µM.

With `Cc1cccc2c1N(C(=O)/C=C\C(=O)O)C(c1c(C)[nH]c3ccccc13)C2` (stereo not drawn) the TGI [2] was > 100 µM, the TGI [3] was > 10 µM and the TGI [4] was 28.6 µM. The TGI [5] was > 100 µM, the TGI [6] was > 100 µM and the TGI [7] was > 100 µM. For the same molecule, the TGI [8] was > 100 µM, the TGI [9] was > 100 µM and the TGI [10] was > 100 µM. For the same molecule, the TGI [11] was > 100 µM, the TGI [12] was > 100 µM and the TGI [13] was > 10 µM. The TGI [14] was > 100 µM, the TGI [15] was > 100 µM and the TGI [16] was > 100 µM. For the same molecule, the TGI [17] was 40.6 µM, the TGI [19] was > 100 µM and the TGI [20] was > 100 µM. For the same molecule, the TGI [21] was > 100 µM, the TGI [22] was > 10 µM and the TGI [23] was > 100 µM. The TGI [24] was > 100 µM, the TGI [57] was 32.8 µM and the TGI [25] was 78.2 µM. For the same molecule, the TGI [26] was > 100 µM, the TGI [27] was > 100 µM and the TGI [28] was 53.3 µM. For the same molecule, the TGI [29] was > 100 µM, the TGI [31] was 53.1 µM and the TGI [32] was > 100 µM. The TGI [33] was > 100 µM, the TGI [34] was 82.4 µM and the TGI [36] was > 100 µM. It also gave a TGI [37] of 48.1 µM, a TGI [38] of 79.3 µM and a TGI [58] of 36 µM. For the same molecule, the TGI [41] was 54.3 µM, the TGI [42] was > 100 µM and the TGI [43] was > 100 µM. The TGI [44] was 51.3 µM, the TGI [45] was > 10 µM and the TGI [46] was > 100 µM. It also gave a TGI [47] of 41.8 µM, a TGI [48] of 46.3 µM and a TGI [49] of 33.9 µM. For the same molecule, the TGI [50] was > 100 µM, the TGI [51] was 42.2 µM and the TGI [52] was > 100 µM. The TGI [53] was > 100 µM, the TGI [54] was > 10 µM and the TGI [55] was > 100 µM. The TGI [56] was > 10 µM.

`CC(=O)OC1CCCn2c1nc1c2C(=O)C(C)=C(N2CC2)C1=O` (stereo not drawn) was tested, and the TGI [1] was 0.726 µM, the TGI [2] was 1.5 µM and the TGI [3] was 1.39 µM. It also gave a TGI [4] of 1.66 µM, a TGI [5] of 1.25 µM and a TGI [6] of 7.28 µM. The TGI [7] was 0.337 µM, the TGI [8] was 1.2 µM and the TGI [9] was 1.24 µM. The TGI [10] was 14.2 µM, the TGI [11] was 1.37 µM and the TGI [12] was 0.944 µM. For the same molecule, the TGI [13] was 1.05 µM, the TGI [14] was 0.36 µM and the TGI [15] was 1.9 µM. It also gave a TGI [16] of 2.77 µM, a TGI [17] of 0.685 µM and a TGI [18] of 1.43 µM. It also gave a TGI [19] of 1.65 µM, a TGI [20] of 0.665 µM and a TGI [21] of 0.373 µM. It also gave a TGI [22] of 0.533 µM, a TGI [23] of 0.965 µM and a TGI [24] of 2.88 µM. It also gave a TGI [57] of 0.351 µM, a TGI [25] of 59 µM and a TGI [26] of 2.35 µM. For the same molecule, the TGI [27] was > 35.2 µM, the TGI [28] was 1.14 µM and the TGI [29] was 0.687 µM. For the same molecule, the TGI [30] was 0.552 µM, the TGI [31] was 1.63 µM and the TGI [32] was 1.32 µM. For the same molecule, the TGI [33] was > 100 µM, the TGI [34] was 54.6 µM and the TGI [35] was 1.01 µM. For the same molecule, the TGI [36] was > 100 µM, the TGI [37] was 0.47 µM and the TGI [38] was 0.927 µM. The TGI [39] was 1.11 µM, the TGI [58] was 0.693 µM and the TGI [40] was 0.768 µM. It also gave a TGI [41] of 1.96 µM, a TGI [42] of 0.587 µM and a TGI [43] of 0.625 µM. The TGI [44] was 14.6 µM, the TGI [45] was 1.2 µM and the TGI [46] was 10.9 µM. The TGI [47] was 0.77 µM, the TGI [48] was 0.636 µM and the TGI [49] was 0.722 µM. The TGI [50] was 0.645 µM, the TGI [51] was 2.38 µM and the TGI [52] was 1.38 µM. The TGI [53] was 5.07 µM, the TGI [54] was 0.808 µM and the TGI [55] was 0.296 µM. It also gave a TGI [56] of 3.35 µM.

`CC[P+](C)(C)c1ccccc1` was tested, and the TGI [1] was > 100 µM, the TGI [2] was > 100 µM and the TGI [3] was > 100 µM. The TGI [4] was > 100 µM, the TGI [5] was > 100 µM and the TGI [6] was > 100 µM. The TGI [7] was > 100 µM, the TGI [8] was > 100 µM and the TGI [9] was > 100 µM. The TGI [10] was > 100 µM, the TGI [11] was > 100 µM and the TGI [13] was > 100 µM. The TGI [14] was > 100 µM, the TGI [15] was > 100 µM and the TGI [16] was > 100 µM. The TGI [17] was > 100 µM, the TGI [18] was > 100 µM and the TGI [19] was > 100 µM. The TGI [20] was > 100 µM, the TGI [21] was > 100 µM and the TGI [22] was > 100 µM. The TGI [23] was > 100 µM, the TGI [24] was > 100 µM and the TGI [57] was > 100 µM. The TGI [25] was > 100 µM, the TGI [26] was > 100 µM and the TGI [27] was > 100 µM. The TGI [28] was > 100 µM, the TGI [29] was > 100 µM and the TGI [30] was > 100 µM. The TGI [31] was > 100 µM, the TGI [32] was > 100 µM and the TGI [33] was > 100 µM. For the same molecule, the TGI [35] was > 100 µM, the TGI [37] was > 100 µM and the TGI [38] was > 100 µM. The TGI [39] was 49.8 µM, the TGI [58] was > 100 µM and the TGI [40] was > 100 µM. For the same molecule, the TGI [42] was > 100 µM, the TGI [43] was > 100 µM and the TGI [45] was > 100 µM. For the same molecule, the TGI [46] was > 100 µM, the TGI [47] was > 100 µM and the TGI [49] was > 100 µM. The TGI [50] was > 100 µM, the TGI [51] was > 100 µM and the TGI [52] was > 100 µM. The TGI [53] was > 100 µM, the TGI [54] was > 100 µM and the TGI [55] was > 100 µM. The TGI [56] was > 100 µM.
